This is an account of results in paper PMC6773951 (Scientific Reports, 2019).

This assay concerns the target T1, hPIRT (human PIRT, phosphoinositide interacting regulator of TRPs) (Homo sapiens, UniProt P0C851).
T1 construct: full-length, recombinant from E. coli, reconstituted in DPC micelles; two TM helices, C-terminal amphipathic helix Asp125-Arg137; maleimide dye labelled for MST
As to the kind of experiment: microscale thermophoresis. Format: binding. The following applies: DPC micelles (0.1% DPC), 50 mM HEPES pH 7.5, 25 °C; fluorophore-labelled hPIRT 400 nM; no TRPM8-S1S4; diC8 chain stated for the NMR titration, MST lipid called PIP2 only.

T1 sequence (P0C851 whole entry): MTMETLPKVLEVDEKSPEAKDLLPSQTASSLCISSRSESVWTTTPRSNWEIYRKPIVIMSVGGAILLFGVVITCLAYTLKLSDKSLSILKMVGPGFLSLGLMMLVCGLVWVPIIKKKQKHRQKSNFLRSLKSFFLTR

In the case of `CCCCCCCC(=O)OC[C@H](COP(=O)(O)O[C@@H]1[C@H](O)[C@H](O)[C@@H](OP(=O)(O)O)[C@H](OP(=O)(O)O)[C@H]1O)OC(=O)CCCCCCC` [PIP2, 1,2-dioctanoyl-sn-glycero-3-phospho-(1′-myo-inositol-4′,5′-bisphosphate)], the Kd is reported as 0.18 ± 0.06 mole%.
